Read-outs that look alike come from different tables or passages of the source.
Experiments:
Type in all cases: cell-based, guinea pig (Hartley strain)
[1] = test system: SRS-A release from lung fragments; assay: Inhibition of SRS-A release from sensitized guinea pig lung fragments; conditions: Cavia porcellus
Protocol: (§1) Inhibitory activities on the release of SRS-A and histamine of the present compounds were determined.
(§2) A male guinea pig (Hartley strain) (body weight: about 300 g) was sensitized by a method according to P. Anderson: "Int. Archs. Allergey appln. Immunol., Vol. 64, pages 249-258 (1981). Thus, 30 mg/kg of cyclophosphamide was intraperitoneally administered to the guinea pig, and 2 days after 1 microgram of ovalbumin (manufactured by Sigma Chemical Co., St. Louis, Mo. U. S. A.) together with 10 mg of aluminium hydroxide gel were intraperitoneally administered so as to have the animal sesitized.
(§3) 50 Days after the sesitization, the animal was killed by exsanguination, and the lung was isolated from the animal and was perfused with 20 ml of Tyrode's solution, then immersed in an ice-cooled Tyrode's solution. The parenchyma of the lung was cut by using McIlwain-type tissue chopper to make it into fragments of lung having 2 mm square and the fragments were washed with Tyrode's solution. 400 Milligrams of sectiles of lung were suspended in 3.6 ml of Tyrode's solution, and this suspension was preincubated at 37° C. for 5 minutes, then 4 microliters of dimethyl sulfoxide solution of the test compound, in the case of control 4 microliters of dimethyl sulfoxide alone was added to the suspension. 5 Minutes after, 0.4 ml of 100 micrograms/ml of ovalbumin solution added so as to release SRS-A for 10 minutes. The suspension was ice-cooled and filtered through gauze, the filtrate was centrifuged at 2,000 rpm for 10 minutes and the supernatant was collected. The supernatant was stored in freezed state at -80° C. until bio-assay was conducted.
(§4) Amounts of SRS-A and histamine contained in the supernatant were determined by bio-assay using ileum of guinea pig.
(§5) A piece of the ileum (2-3 cm of length) positioned from 15-25 cm from the opening portion of ileocecum was isolated from a male guinea pig (Hartley strain) (body weight: 400-600 g) which was fasted for 24 hours. The piece of ileum was hanged vertically in a Magnus tube which was filled with 10 ml of Tyrode's solution containing 10^-7 M of atropine sulfate under air stream conditions. The isotonic contraction of the piece of the ileum was measured at 0.5 g of load by using an isotonic transducer "TD-112S" (manufactured by Nihon Koden Co., Ltd.). The measurements were carried out after the reaction to histamine of the piece of ileum was kept constant. Bioassay of histamine was measured by using the value of contraction shown in 30 seconds after the addition of the supernatant. Bioassay of on SRS-A was measured by using the value of contraction shown at 2 minutes after the addition of the supernatant in the presence of 10^-6 M of pyrilamine (manufactured by Sigma Chemical Co.), and compared with the standard curve of crude SRS-A released from the fragments of the lung.

5-lipoxygenase = target: T1, 5-lipoxygenase (Cavia porcellus, UniProt A0A286X958); assay: 5-Lipoxygenase inhibitory activity (conversion of 14C-arachidonic acid to 5-HETE) in guinea pig peritoneal exudate cells; conditions: read-out: inhibition ratio (%) of 5-lipoxygenase activity; for inhibition at 0.3 µM: concentration 3 × 10^-7 M; for inhibition at 1 µM: concentration 10^-6 M; for inhibition at 0.1 µM: concentration 10^-7 M; for inhibition at 3 µM: concentration 3 × 10^-6 M; for inhibition at 10 µM: concentration 10^-5 M
T1 construct: endogenous in cells; host or cells: guinea pig (Hartley strain) casein-elicited peritoneal exudate cells, intact cell suspension
T1 sequence (A0A286X958 1-674): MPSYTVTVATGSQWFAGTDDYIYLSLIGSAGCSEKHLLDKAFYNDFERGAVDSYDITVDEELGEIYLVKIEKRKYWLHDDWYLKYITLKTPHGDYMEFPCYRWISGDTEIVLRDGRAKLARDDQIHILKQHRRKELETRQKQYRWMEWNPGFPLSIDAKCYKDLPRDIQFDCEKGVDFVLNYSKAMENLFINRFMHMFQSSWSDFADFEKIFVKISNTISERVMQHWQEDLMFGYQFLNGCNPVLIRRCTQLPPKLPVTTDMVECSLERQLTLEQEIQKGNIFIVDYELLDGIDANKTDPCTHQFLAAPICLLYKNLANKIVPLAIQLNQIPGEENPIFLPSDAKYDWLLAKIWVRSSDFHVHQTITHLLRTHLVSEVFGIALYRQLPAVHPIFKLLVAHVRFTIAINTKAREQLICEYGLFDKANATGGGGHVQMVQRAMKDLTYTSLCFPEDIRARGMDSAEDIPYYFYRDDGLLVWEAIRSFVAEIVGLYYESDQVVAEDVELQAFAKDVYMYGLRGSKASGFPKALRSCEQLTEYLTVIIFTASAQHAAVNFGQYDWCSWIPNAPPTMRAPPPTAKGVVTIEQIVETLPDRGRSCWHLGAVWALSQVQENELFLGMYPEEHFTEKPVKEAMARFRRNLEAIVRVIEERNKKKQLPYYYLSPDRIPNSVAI
Protocol: 5-Lipoxygenase inhibitory activity of the present compounds was determined by a method according to procedures described in "J. Biol. Chem., Vol. 256, pages 4156-4159, (1981, Ibid. Vol. 258, pages 5754-5758 (1983).
(1) Preparation of Test Cells
A guinea pig (Hartley strain) (500-650 g body weight) was intraperitoneally administered with 2%-casein solution in 3/50 the volume of body weight. 14 Hours after the administration, the animal was sacrificed by bleeding and the peritoneal cavity was washed with Dulbecco's phosphate buffered saline (PBS) containing 3 U/ml of heparin and the exudate cells were harvested. The sample of cells was washed twice with Dulbecco's PBS (-), then the cells were suspended in Dulbecco's PBS (-), containing 1 mM of calcium chloride and 5.5 mM of glucose, so as to make a suspension having the concentration of 2.5×10^7 cells/ml.
To 0.2 ml of the above-mentioned cell suspension was added 10^-5 M of Indomethacine, and incubated at 30° C. for 2 minutes. Each of the appropriate concentrations of test compounds was added to the suspension respectively, further incubated for 2 minutes. Next, 10 μm of Ionophore A23187 (manufactured by Calbiochem-Behring, San Diego, Calif., U. S. A) was added to the suspension, further, 10 μm of ^14 C-arachidonic acid (manufactured by Amersham Japan, Ltd., Tokyo, Japan) was added and initiated the reaction. 3 Minutes after the initiation of the reaction, 0.1 ml of 0.2M-citric acid was added so as to terminate the reaction. 1.2 Milliliters of ethyl acetate was added to the reaction mixture and shaked for 5 minutes. The reaction mixture was centrifuged at 3,000 rpm for 5 minutes so as to separate the organic layer from the aqueous layer. 1 Milliliter of the organic layer (the upper layer) was dehydrated by passing through a mini-column packed with anhydrous sodium sulfate. The dehydrated organic layer was dried under nitrogen gas stream. The residue obtained was dissolved in ethyl acetate, and the total amount of the ethyl acetate solution was spotted onto thin layer chromochromatography (TCL) plate (Art. 11845 manufactured by E. Merck A. G.). The TCL was carried out with a mixed solvent of diethyl ether:petroleum:ether:acetic acid (50:50:1 volume/volume), then the radioactive metabolites on the plate were detected by using "Ultrafilm ^3 H" (a trademark for a X-ray film, manufactured by LKB Co.). Each fractions corresponding to the metabolites was scraped in to a scintillation vial, and 5 ml of "Scintilator ACS-II" (manufactured by Amersham Japan, Ltd.), was added then the radio-activity was determined by means of a liquid scintillation counter.

[2] = test system: histamine release from lung fragments; assay: Inhibition of histamine release from sensitized guinea pig lung fragments; conditions: Cavia porcellus, read-out: Inhibition ratio (%) Histamine; for inhibition at 3 µM: Table 2, dose 3 μM; for inhibition at 30 µM: Table 2, dose 30 μM
Protocol: as §1, §2, §3, §4, §5

[3] = Table 2, dose 3 μM, read-out: Inhibition ratio (%) SRS-A
[4] = Table 2, dose 30 μM, read-out: Inhibition ratio (%) SRS-A
[5] = Table 2B, 3 μM, read-out: Inhibitory activities on SRS-A (%)
[6] = Table 2B, 30 μM, read-out: Inhibitory activities on SRS-A (%)

inhibition at 0.3 µM (5-lipoxygenase) | inhibition at 1 µM (5-lipoxygenase) | inhibition at 0.1 µM (5-lipoxygenase) | inhibition at 3 µM (5-lipoxygenase) | inhibition at 10 µM (5-lipoxygenase) | SMILES | inhibition at 3 µM [1, 3] | inhibition at 30 µM [1, 4] | inhibition at 3 µM [1, 5] | inhibition at 30 µM [1, 6] | inhibition at 3 µM [2] | inhibition at 30 µM [2]
64% | 88% | 44% | – | – | COC1=CC(=O)C(OC)=C(CCCCCCCC2=C(OC)C(=O)C=C(OC)C2=O)C1=O [Test Compound No. 11, 2,2'-Heptamethylenebis(3,6-dimethoxy-1,4-benzoquinone)] | 32.5% | 85.7% | 32.5% | 85.7% | -8.4% | -3.6%
26% | 37% | – | 73% | 89% | CCCC/C=C\CCCCCCCC1=C(OC)C(=O)C=C(OC)C1=O [Test Compound No. 34, 2,5-Dimethoxy-3-(Z-8-tridecenyl)-1,4-benzoquinone] | – | – | 3.2% | 0.8% | – | –
72% | 87% | 36% | – | – | COC1=CC(=O)C(OC)=C(CCCCCCCCC2=C(OC)C(=O)C=C(OC)C2=O)C1=O [Test Compound No. 12, 2,2'-Octamethylenebis(3,6-dimethoxy-1,4-benzoquinone)] | 26.9% | 71.7% | – | – | 2.4% | -2.2%
78% | 89% | 34% | – | – | COC1=CC(=O)C(OC)=C(CCCCCCCCCCC2=C(OC)C(=O)C=C(OC)C2=O)C1=O [Test Compound No. 14, 2,2'-Decamethylenebis(3,6-dimethoxy-1,4-benzoquinone)] | 4.5% | 29.2% | – | – | -12.6% | -23.5%
39% | 75% | – | 92% | 91% | CCCCC#CCCCCCC1=C(OC)C(=O)C=C(OC)C1=O [compound 30] | – | – | 23.8% | 73.4% | – | –
33% | 53% | 17% | – | – | COC1=CC(=O)C(OC)=C(CCCCCC2=C(OC)C(=O)C(C)=C(OC)C2=O)C1=O [Test Compound No. 18, 2,5-Dimethoxy-3-methyl-6-[5-(2,5-dimethoxy-1,4-benzoquinon-3-yl)pentyl]-1,4-benzoquinone] | 62.9% | 91.9% | – | – | 14.4% | 8.3%
37% | 77% | 5% | – | – | COC1=CC(=O)C(OC)=C(CCCCCCCCCCCCC2=C(OC)C(=O)C=C(OC)C2=O)C1=O [Test Compound No. 15, 2,2'-Dodecamethylenebis(3,6-dimethoxy-1,4-benzoquinone)] | 3.4% | 3.8% | – | – | -10.4% | -16%
74% | 87% | 48% | – | – | COC1=C(CCO)C(=O)C(OC)=C(CCCCCC2=C(OC)C(=O)C(CCO)=C(OC)C2=O)C1=O [Test Compound No. 19, 5,5'-Pentamethylenebis[2-(2-hydroxyethyl)-3,6-dimethoxy-1,4-benzoquinone]] | 40.6% | 76.6% | 40.6% | 76.6% | – | –
43% | 73% | – | 91% | 93% | CCCCC#CCCCCCCCC1=C(OC)C(=O)C=C(OC)C1=O [compound 31] | – | – | 17% | 37.7% | – | –
79% | 89% | 13% | – | – | COC1=C(C)C(=O)C(OC)=C(CCCCCC2=C(OC)C(=O)C(C)=C(OC)C2=O)C1=O [Test Compound No. 17, 2,2'-Pentamethylenebis(3,6-dimethoxy-5-methyl-1,4-benzoquinone)] | 56.3% | 83.9% | – | – | – | –
36% | 56% | – | 80% | 87% | CCCCC#CCCCCCCCCCC1=C(OC)C(=O)C=C(OC)C1=O [Test Compound No. 32, 2,5-Dimethoxy-3-(10-pentadecynyl)-1,4-benzoquinone] | – | – | 12.4% | 26% | – | –
51% | 87% | – | 91% | 89% | CCCC/C=C\CCCCCC1=C(OC)C(=O)C=C(OC)C1=O [Test Compound No. 33, 2,5-Dimethoxy-3-(Z-6-undecenyl)-1,4-benzoquinone] | – | – | 19.6% | 33.4% | – | –

Source: patent US5220042A, “1,4-benzoquinone derivatives and benzene derivatives, and process for preparing the same” (priority 1984, dated 1993)
